{"source": "patent US12708601B2", "about": "“Mangosteen pericarp extract and process for its preparation thereof” (JUNHONG BIOTECHNOLOGY CO., LTD., priority 2020, dated 2026)", "tested_on": "B16F10 melanoma cells", "assay": "Cell viability assay (MTT) in B16F10 cells treated with α-MSH with or without aqua choice", "type": "cell-based, mouse", "details": "100 nM, 24 hours of incubation", "description": "The mouse B16F10 melanoma cells were purchased from Bioresource Collection and Research Center (BCRC, Hsinchu, Taiwan) and cultured using Dulbecco's Modified Eagle Medium (DMEM, Gibco, MA, USA) supplemented with 10% fetal bovine serum and 1% antibiotics (100 units/mL penicillin, […], 0.25 μg/mL amphotericin) in a humidified atmosphere of 5% CO2 at 37° C. The control group was untreated with alpha-melanocyte-stimulating hormone (α-MSH) and aquachoice; The different treatment groups were all treated with α-MSH and different doses aquachoice.\nCells were seeded at a density of […] in 96-well plate for 24 h and then treated with aqua choice at different concentrations for 24 and 48 h. At the end of the treatment, the medium was removed and 100 μL 3-(4,5-Dimethylthiazol-2-yl)-2,5-Diphenyltetrazolium bromide (MTT) solution (Sigma-Aldrich, USA) was treated. MTT reagent was cleanly removed after incubation in a 37° C. incubator for 3 hours, and then 100 μL of DMSO per well was added to dissolve all of the formazan generated in the wells. The result was measured by absorbance at 570 nm with an ELISA reader.", "data": [{"substance": "alpha-melanocyte-stimulating hormone [α-MSH]", "values": [{"measurement": "increase in cell viability", "value": "~ 1.55 fold"}]}]}
